We go through 16 molecules from patent US4337265A, “Cyclohepta[b]pyrrole derivatives” (Ayerst, McKenna & Harrison Inc., priority 1981, dated 1982).

Series [1] deals with aldose reductase. The note with it: literature report; cited from earlier work.
Series [2] concerns the target T1, aldose reductase (Bos taurus, UniProt P16116).
T1 construct: preparation of the enzyme from bovine lens; from tissue; host or cells: bovine lens
As to the kind of experiment: in vitro aldose reductase inhibition (modified Hayman and Kinoshita procedure; enzyme from bovine lens). The format is biochemical. The note with it: read-out: % Inhibition At Different Molar Concentrations (in vitro); for inhibition at 10 µM: molar concentration 10^-5; for inhibition at 1 µM: molar concentration 10^-6; for inhibition at 0.1 µM: molar concentration 10^-7. As to the method:
In the present case the procedure of Hayman and Kinoshita is modified in that the final chromatography step is omitted in the preparation of the enzyme from bovine lens. The following results were obtained when the foregoing listed compounds of formula I were evaluated in the above in vitro test.

The nature of series [3]: hygroscopicity of the salt. The format is physicochemical. As to conditions: disodium salt.

Molecules are shown by their SMILES.

With `O=C(O)CN1C(=O)c2cccc3cccc(c23)C1=O` [1,3-Dioxo-1H-benz[de]isoquinoline-2(3H)-acetic acid], the “aldose reductase inhibition (in words)” value in series [1] is “effective inhibitor of aldose reductase”.
As to `O=C(O)C[n+]1cc(C(=O)O)c2cccccc1-2` [3-Carboxy-1-(carboxymethyl)-cyclohepta[b]pyrrolium Chloride], in series [2], the inhibition at 10 µM amounted to 80%, the inhibition at 1 µM was determined as 37% and the inhibition at 0.1 µM worked out at 13%.
The like results for `O=C(O)Cn1c2cccccc-2c(C(=O)O)c1=O` [Example 2, 3-Carboxy-1,2-dihydro-2-oxocyclohepta[b]pyrrole-1-acetic Acid] were, in that order, 88%, 82% and 44%.
Consider `O=C(O)Cn1c2cccccc-2cc1=O` [Example 3, 1,2-Dihydro-2-oxocyclohepta[b]pyrrole-1-acetic Acid], for which, in series [2], the inhibition at 10 µM was found to be 80%, the inhibition at 1 µM is 45% and the inhibition at 0.1 µM was determined as 9%.
For `CCOC(=O)c1c2cccccc-2n(CC(=O)O)c1=O` [Example 4, 3-(Ethoxycarbonyl)-1,2-dihydro-2-oxocyclohepta[b]pyrrole-1-acetic Acid], in series [2], the inhibition at 10 µM was determined as 73% and the inhibition at 1 µM was 26%.
Take `O=C(O)Cn1c2cccccc-2c(C(=O)O)c1=S` [Example 5, 3-Carboxy-1,2-dihydro-2-thioxocyclohepta[b]pyrrole-1-acetic Acid]: in series [2], the inhibition at 10 µM was found to be 93%, the inhibition at 1 µM stood at 85% and the inhibition at 0.1 µM came out at 47%.
In the case of `CC(C)(C)C(=O)OCOC(=O)Cn1c2cccccc-2c(C(=O)OCOC(=O)C(C)(C)C)c1=O` [Example 6, 1,2-Dihydro-3-[(2,2-dimethyl-1-oxopropoxy)methoxycarbonyl]-2-oxo-cyclohepta[b]pyrrole-1-acetic Acid (2,2-Dimethyl-1-oxopropoxy)methyl Ester], in series [2], the inhibition at 10 µM came out at 75%, the inhibition at 1 µM stood at 44% and the inhibition at 0.1 µM is 9%.
As to `CC(=O)c1c2cccccc-2n(CC(=O)O)c1=O` [Example 7, 3-Acetyl-1,2-dihydro-2-oxocyclohepta[b]pyrrole-1-acetic Acid], in series [2], the inhibition at 10 µM amounted to 76%, the inhibition at 1 µM stood at 26% and the inhibition at 0.1 µM amounted to 3%.
Consider `CCc1c2cccccc-2n(CC(=O)O)c1=O` [Example 8, 3-Ethyl-1,2-dihydro-2-oxocyclohepta[b]pyrrole-1-acetic Acid], for which, in series [2], the inhibition at 10 µM is 60% and the inhibition at 1 µM turned out to be 19%.
Take `O=C(O)Cn1c2ccc(Cl)ccc-2c(C(=O)O)c1=O` [Example 9, 3-Carboxy-6-chloro-1,2-dihydro-2-oxocyclohepta[b]pyrrole-1-acetic Acid]: in series [2], the inhibition at 10 µM was 85%, the inhibition at 1 µM worked out at 78% and the inhibition at 0.1 µM was found to be 36%.
With `CCOC(=O)c1c2ccc(Cl)ccc-2n(CC(=O)O)c1=O` [Example 10, 6-Chloro-3-(ethoxycarbonyl)-1,2-dihydro-2-oxocyclohepta[b]pyrrole-1-acetic Acid], in series [2], the inhibition at 10 µM came out at 76%, the inhibition at 1 µM was found to be 34% and the inhibition at 0.1 µM stood at 9%.
The like results for `CC(=O)c1c2ccc(Cl)ccc-2n(CC(=O)O)c1=O` [Example 11, 3-Acetyl-6-chloro-1,2-dihydro-2-oxocyclohepta[b]pyrrole-1-acetic Acid] were, in that order, 85%, 52% and 11%.
Regarding `N#Cc1c2cccccc-2n(CC(=O)O)c1=O` [Example 12, 3-Cyano-1,2-dihydro-2-oxocyclohepta[b]pyrrole-1-acetic Acid], in series [2], the inhibition at 10 µM was determined as 88%, the inhibition at 1 µM came out at 82% and the inhibition at 0.1 µM is 48%.
`NC(=O)c1c2cccccc-2n(CC(=O)O)c1=O` [Example 13, 3-(Aminocarbonyl)-1,2-dihydro-2-oxocyclohepta[b]pyrrole-1-acetic Acid]: in series [2], the inhibition at 10 µM was 73%, the inhibition at 1 µM was determined as 28% and the inhibition at 0.1 µM stood at 7%.
Turning to `CN(CC(=O)O)C(=O)c1c2ccc(Cl)ccc-2n(CC(=O)O)c1=O` [Example 15, 6-Chloro-3-[(N-carboxymethyl-N-methyl)amino]carbonyl-1,2-dihydro-2-oxocyclohepta[b]pyrrole-1-acetic Acid], the hygroscopicity result in series [3] was “hydroscopic”.
For `O=C1NC(=O)[C@@]2(CCOc3ccc(F)cc32)N1` [sorbinil, (S)-6-Fluoro-2,3-dihydrospiro(4H-1-benzopyran-4,4'-imidazolidine)-2',5'-dione], in series [1], the “aldose reductase inhibition (in words)” value is recorded as “aldose reductase inhibiting properties”.
